Measurements taken from US4623626A (priority 1982, dated 1986).
“Also recorded” adds a separate entry of the source. Where two headings read alike, the source gives them in different places.

Assays:
[1] = test system: glutamic acid oxidase (known enzyme); settings: cited from earlier work
[2] = biological target: T1, L-glutamic acid oxidase (enzyme of the present invention) (Streptomyces sp, UniProt Q8L3C7); test: Effects of additives on the enzyme activity (inhibition, activation); type: biochemical, Streptomyces sp. X-119-6; settings: additive 1 mM
T1 construct: isolated and purified the enzyme of the present invention as a single enzyme protein from such a cultured product of the microorganism; made in house; host or cells: natural producer, Streptomyces sp; (strain X-119-6 per the earlier reading); enzyme purified from the cultured product, not recombinant
T1 sequence (Q8L3C7 15-390 limits assumed): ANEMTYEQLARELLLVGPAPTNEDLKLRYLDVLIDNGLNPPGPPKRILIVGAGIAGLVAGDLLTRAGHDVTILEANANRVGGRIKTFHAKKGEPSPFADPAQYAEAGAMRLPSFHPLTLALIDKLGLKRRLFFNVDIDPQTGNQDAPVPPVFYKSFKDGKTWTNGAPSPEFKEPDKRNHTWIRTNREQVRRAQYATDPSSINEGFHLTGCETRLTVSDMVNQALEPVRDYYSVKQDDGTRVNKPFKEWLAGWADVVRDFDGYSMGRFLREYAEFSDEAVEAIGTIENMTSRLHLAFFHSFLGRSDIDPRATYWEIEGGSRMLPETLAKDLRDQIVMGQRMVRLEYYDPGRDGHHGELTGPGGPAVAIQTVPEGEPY
T1 sequence (Q8L3C7 391-520 limits assumed): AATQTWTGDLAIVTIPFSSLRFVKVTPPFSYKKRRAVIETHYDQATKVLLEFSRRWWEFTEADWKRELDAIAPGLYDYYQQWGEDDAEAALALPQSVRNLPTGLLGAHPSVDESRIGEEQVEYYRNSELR
T1 sequence (Q8L3C7 521-701 limits assumed): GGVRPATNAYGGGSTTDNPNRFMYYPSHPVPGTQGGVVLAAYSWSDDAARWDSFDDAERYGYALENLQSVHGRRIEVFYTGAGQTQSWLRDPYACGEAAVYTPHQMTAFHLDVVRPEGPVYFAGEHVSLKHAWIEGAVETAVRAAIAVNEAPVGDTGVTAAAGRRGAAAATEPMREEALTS
Protocol: For examination of the effects of various additives on the enzyme activity of the present invention, enzymatic reaction was carried out in a reaction mixture (pH 7.4) containing each of the substances shown in Table 2 at a concentration of 1 mM.

[3] = test system: glutamic acid oxidase (known enzyme); settings: cited from earlier work; for activity of the known enzyme for the substrate: relative to L-glutamic acid; for relative activity of the known enzyme: velocity for L-glutamic acid given as 100
[4] = biological target: T1, L-glutamic acid oxidase (enzyme of the present invention); test: Substrate specificity of the enzyme of the present invention, oxygen electrode method; type: biochemical, Streptomyces sp. X-119-6
Protocol: The concentration of each substrate was 10 mM, and the reactions were carried out at pH 7.4 (0.1 M potassium phosphate buffer) and pH 6.0 (0.1 M acetate buffer).

[5] = biological target: T1, L-glutamic acid oxidase (enzyme of the present invention); test: km values of the enzyme of the present invention; type: biochemical, Streptomyces sp. X-119-6; settings: pH 7.4
Protocol: That is, 1 ml of 0.1 M potassium phosphate buffer (pH 7.4) containing 10 mM sodium L-glutamate was charged into an oxygen electrode cell and 10 μl of an enzyme solution was added thereto to measure the oxygen consumption rate. One unit of enzyme was determined as the amount of enzyme which consumes 1μ mol of oxygen per minute at 30° C. in the absence of catalase (unit: hereinafter abbreviated as "U").

[6] = pH of 6.0 or less or pH 10.0 or more

For `[Cl][Cu][Cl]` [CuCl2, cupric chloride], the “inhibition of the known enzyme” value [1] is listed as “completely inhibited” and the “inhibition of the activity of the enzyme of the present invention” value ([2]; pH 7.4) is listed as “not inhibited at all”.
In the case of `NC(=O)CC[C@H](N)C(=O)O` [L-Glutamine], the “activity of the known enzyme for the substrate” value [3] is listed as 8.4%, the “relative activity of the known enzyme” value [3] is listed as 8.4 and the “activity of the enzyme of the present invention for the substrate” value (“activity of the enzyme … for the substrate” below) [4] is listed as “substantially no activity”.
For `[Ca+2].[Cl-].[Cl-]` [CaCl2], the Relative activity ([2]; reaction mixture pH 7.4, no addition = 100) was 100.0.
For `[Cu+2]` [copper ions], the “inhibition of the known enzyme” value [1] is listed as “Substantially completely inhibited; also recorded: markedly inhibited”.
In the case of `N[C@@H](Cc1c[nH]cn1)C(=O)O` [L-Histidine], the “activity of the known enzyme for the substrate” value [3] is listed as 6.8%, the “relative activity of the known enzyme” value [3] is listed as 6.8 and the “activity of the enzyme … for the substrate” value [4] is listed as “substantially no activity”.
For `N[C@@H](CC(=O)O)C(=O)O` [L-Aspartic acid], the “activity of the known enzyme for the substrate” value [3] is listed as at most 0.1%, the Km [5] is listed as 29 mM and the “activity of the enzyme … for the substrate” value ([4]; pH 6.0) is listed as “substantially no activity”. For the same molecule, the “action of the enzyme of the present invention on the substrate” value [6] was “substantially no action”.
In the case of `N[C@H](CCC(=O)O)C(=O)O` [D-Glutamic acid], the “activity of the enzyme … for the substrate” value [4] is reported as “substantially no activity”.
